Results taken from ChEMBL document CHEMBL1201862, “PubChem BioAssay data set” (2004).
Where a name gives a salt, the structure may show the parent alone. Calls of active or inactive are those of the source.

Assays:
[1] = T. cruzi growth inhibition in host cells, dose response, cell-based, plate reader, dry powder, set 2 (AID 652275); type: functional
[2] = molecular target: Protein Wnt-3a (Mus musculus, UniProt P27467); assay: SAR analysis of small molecule antagonists of Gli-SUFU in a Wnt3a luminescent reporter assay.; type: functional
Sequence of Protein Wnt-3a (P27467 whole entry): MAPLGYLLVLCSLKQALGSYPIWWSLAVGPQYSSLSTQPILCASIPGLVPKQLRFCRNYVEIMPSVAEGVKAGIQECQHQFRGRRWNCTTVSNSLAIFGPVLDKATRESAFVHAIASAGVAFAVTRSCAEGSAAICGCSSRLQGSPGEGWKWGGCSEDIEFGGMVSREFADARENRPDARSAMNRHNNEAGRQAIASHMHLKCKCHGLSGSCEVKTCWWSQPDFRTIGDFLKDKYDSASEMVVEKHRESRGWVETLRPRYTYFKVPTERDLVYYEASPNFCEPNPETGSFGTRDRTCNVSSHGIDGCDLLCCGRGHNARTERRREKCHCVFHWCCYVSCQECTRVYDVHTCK

[3] = inhibitors of non-replicating M. tuberculosis, dose response, luciferase, dry powder (AID 651619); type: functional; settings: Mycobacterium tuberculosis
[4] = inhibitors of non-replicating M. tuberculosis, dose response, luciferase, dry powder (AID 651620); type: functional; settings: Mycobacterium tuberculosis
[5] = molecular target: Endoplasmic reticulum aminopeptidase 1 (Homo sapiens, UniProt Q9NZ08); assay: inhibition of human ERAP1 enzyme activity – biochemical, cherry-pick, set 2, plate reader, dose response (AID 743314)
Sequence of Endoplasmic reticulum aminopeptidase 1 (Q9NZ08 whole entry): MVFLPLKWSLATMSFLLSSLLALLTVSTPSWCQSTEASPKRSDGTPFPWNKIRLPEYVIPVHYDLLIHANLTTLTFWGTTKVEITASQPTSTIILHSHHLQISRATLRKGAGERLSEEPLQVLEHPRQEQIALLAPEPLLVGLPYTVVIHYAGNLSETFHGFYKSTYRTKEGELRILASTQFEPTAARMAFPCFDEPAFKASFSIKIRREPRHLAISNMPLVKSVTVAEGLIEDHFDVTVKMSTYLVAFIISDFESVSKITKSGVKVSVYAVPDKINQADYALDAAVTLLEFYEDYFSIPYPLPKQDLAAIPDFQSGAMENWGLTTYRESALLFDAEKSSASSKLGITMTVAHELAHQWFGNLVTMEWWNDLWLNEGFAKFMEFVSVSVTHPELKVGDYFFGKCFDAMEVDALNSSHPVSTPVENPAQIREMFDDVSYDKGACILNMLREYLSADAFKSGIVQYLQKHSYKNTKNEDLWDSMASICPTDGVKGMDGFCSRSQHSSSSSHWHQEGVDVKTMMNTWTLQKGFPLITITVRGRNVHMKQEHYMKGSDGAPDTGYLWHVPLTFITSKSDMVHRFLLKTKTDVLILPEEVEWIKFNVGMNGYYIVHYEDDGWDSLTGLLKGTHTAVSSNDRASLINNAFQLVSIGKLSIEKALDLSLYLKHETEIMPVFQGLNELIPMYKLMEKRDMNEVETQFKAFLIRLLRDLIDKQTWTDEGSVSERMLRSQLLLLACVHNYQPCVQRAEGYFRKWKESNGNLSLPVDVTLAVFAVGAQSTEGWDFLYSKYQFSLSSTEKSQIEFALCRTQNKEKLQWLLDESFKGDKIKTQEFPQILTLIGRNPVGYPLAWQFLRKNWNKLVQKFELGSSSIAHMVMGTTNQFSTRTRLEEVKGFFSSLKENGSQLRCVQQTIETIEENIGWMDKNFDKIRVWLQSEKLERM

[6] = growth inhibition of yeast DHODH-expressing 3D7 parasites – SYBR Green, dry powder samples, dose response (AID 1159570); type: functional, cell-based;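 note: parasite growth measured after 72 hours of compound exposure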
[7] = toxicity to human HepG2 hepatoma cells – cell-based, plate reader, dry powder samples, cytotoxicity control, dose response (AID 1159569); type: functional;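 note: inhibitor potency with signal falling toward the positive control level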
[8] = P. falciparum Dd2 growth inhibitors, dose response, SYBR Green, cherry-picked samples (AID 1159567); type: functional, cell-based
[9] = Dd2 malaria parasite growth inhibition potency – SYBR Green, dry powder samples, dose response (AID 1159566); type: functional, cell-based;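 note: potency for growth inhibition with lower SYBR green DNA signal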
[10] = growth inhibition of PfATP4-mutant resistant parasites – NITD609-resistant line, SYBR Green, dry powder, dose response (AID 1159571); type: functional, cell-based;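 note: parasites synchronized at ring stage by sorbitol before testing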
[11] = lung carcinoma cell viability loss – CellTiter-Glo luminescence, dry powder, set 17, dose response (AID 1117284); type: functional, cell-based; settings: A549
[12] = Trypanosoma cruzi growth suppression in host cells – NIH3T3 host cells, beta-gal luminescence, confirmation (AID 2044); type: functional, cell-based;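 note: intracellular parasites grown in NIH/3T3 mouse fibroblasts as host cells; luminescent beta-galactosidase reporter signal from transgenic T. cruzi replicating inside host cells; inhibitors lower the luminescence signal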
[13] = viability of PTEN-deleted HCT116 cells – cell-based, HCT116 PTEN knockout, dose response (AID 1047); type: functional;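 note: HCT116 colon tumor cells with PTEN knocked out; cells exposed to compound for 60 hours before readout; potency for loss of cell viability measured by luminescence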
[14] = NIH3T3 cell viability loss – ATP luminescence, mouse fibroblasts, counter-screen, dose response (AID 2010); type: functional, cell-based;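 note: cells exposed to compound for about 90 hours before reading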
[15] = viability of HCT116 lacking mutant beta-catenin – cell-based, human colon tumor, dose response (AID 1045); type: functional;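 note: HCT116 colon tumor cells with beta catenin knocked out; cells exposed to compound for 60 hours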
[16] = Luminescence Cell-Based Dose Retest to Confirm Inhibitors of Cancer Stem Cells. [Related pubchem assays (depositor defined):AID2717, AID2721]; type: functional; settings: Homo sapiens
[17] = molecular target: T1, Ubiquitin-conjugating enzyme E2 N (Homo sapiens, UniProt P61088); type: functional;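 note: Dose-response confirmation in a TR-FRET assay detecting UBC13-driven polyubiquitin chain formation, inhibition measured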
T1 sequence (P61088 whole entry): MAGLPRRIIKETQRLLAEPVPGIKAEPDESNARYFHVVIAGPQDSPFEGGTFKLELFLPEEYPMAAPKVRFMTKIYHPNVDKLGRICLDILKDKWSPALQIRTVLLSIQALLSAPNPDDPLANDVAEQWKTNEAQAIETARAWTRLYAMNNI

[18] = tested on: INS1; assay: INS-1E survival protection against cytokine death – cell-based, luminescence, retest, dose response (AID 449756); type: functional; settings: Rattus norvegicus;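 note: cell death triggered by IL-1 beta plus TNF-alpha plus IFN-gamma mixture; protective hits raise ATP signal compared with cytokine alone wells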
[19] = blockers of HIV-1 envelope-mediated cell-cell fusion – cherry-pick, dose response (AID 652057); type: functional, cell-based
[20] = viability loss in CEM21 cells – cell-based, CellTiter-Glo luminescence, cherry-picked, cytotoxicity control for viral fusion inhibitor project, dose response (AID 652042); type: functional;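 note: potency for signal decrease meaning cytotoxicity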
[21] = blockers of HIV-1 ZM109 envelope-driven cell-cell fusion – HeLa effector, CEM target cells, luciferase, cherry-pick, dose response (AID 652058); type: functional, cell-based;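 note: luciferase signal from HIV-1 Env mediated cell-cell fusion of effector and target cells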
[22] = off-target signal loss in HeLa-CEM21 co-culture – HeLa F-luc CTL cells, cherry-picked, counter-screen for HIV-1 Env fusion inhibitor project, dose response (AID 652040); type: functional, cell-based;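 note: potency for signal decrease marking cytotoxic or nonspecific inhibition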
[23] = HIV-1 AD8 envelope cell-cell fusion blockers – cherry-pick, dose response (AID 652062); type: functional, cell-based;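 note: luciferase signal from cell-cell fusion driven by HIV-1 clade B AD8 Env; potency is for inhibitors of fusion seen as a drop in luminescence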
[24] = molecular target: Cytochrome P450 2C19 (Homo sapiens, UniProt P33261); assay: Cytochrome panel assay with activity outcomes. Panel member name: p450-cyp2c19 Compounds with AC50 equal or less than 10 uM are considered active; type: functional; settings: read-out: AC50
Sequence of Cytochrome P450 2C19 (P33261 whole entry): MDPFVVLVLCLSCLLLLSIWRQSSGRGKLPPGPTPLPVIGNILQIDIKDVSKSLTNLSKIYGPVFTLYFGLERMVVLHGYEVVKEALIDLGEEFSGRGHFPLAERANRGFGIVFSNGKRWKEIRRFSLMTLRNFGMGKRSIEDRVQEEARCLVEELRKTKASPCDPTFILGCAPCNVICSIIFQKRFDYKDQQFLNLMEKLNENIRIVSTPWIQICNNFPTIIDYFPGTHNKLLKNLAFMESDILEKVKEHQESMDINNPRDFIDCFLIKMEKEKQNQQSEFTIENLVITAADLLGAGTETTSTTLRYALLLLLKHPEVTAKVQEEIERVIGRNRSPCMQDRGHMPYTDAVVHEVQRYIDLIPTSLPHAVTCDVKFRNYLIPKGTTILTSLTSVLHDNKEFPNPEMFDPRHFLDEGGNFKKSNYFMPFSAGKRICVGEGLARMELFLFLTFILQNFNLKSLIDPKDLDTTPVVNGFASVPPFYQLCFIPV

[25] = IC50 of insulin release inhibition, rat insulinoma INS-1E line, 5 mM glucose, cell-based (AID 1117331); type: functional
[26] = cells; type: functional, cell-based; settings: INS-1E
[27] = molecular target: T2, Cytochrome P450 1A2 (Homo sapiens, UniProt P05177);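 note: PubChem cytochrome P450 panel assay, CYP1A2 panel member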
T2 sequence (P05177 whole entry): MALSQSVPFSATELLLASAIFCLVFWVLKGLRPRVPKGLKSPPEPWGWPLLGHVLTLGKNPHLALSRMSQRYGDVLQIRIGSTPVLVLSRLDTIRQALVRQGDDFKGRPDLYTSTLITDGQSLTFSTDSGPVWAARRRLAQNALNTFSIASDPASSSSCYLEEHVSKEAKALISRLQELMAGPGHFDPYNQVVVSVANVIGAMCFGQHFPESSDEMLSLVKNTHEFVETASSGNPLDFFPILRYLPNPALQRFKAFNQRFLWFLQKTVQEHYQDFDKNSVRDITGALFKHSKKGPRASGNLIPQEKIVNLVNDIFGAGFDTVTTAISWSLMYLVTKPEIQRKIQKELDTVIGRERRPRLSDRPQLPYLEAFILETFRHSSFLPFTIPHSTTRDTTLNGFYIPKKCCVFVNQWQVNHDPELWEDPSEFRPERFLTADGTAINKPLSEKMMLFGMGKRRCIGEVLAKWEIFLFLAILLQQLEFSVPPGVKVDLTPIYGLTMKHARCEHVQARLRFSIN

C[C@H]1CN([C@@H](C)CO)C(=O)c2cccc(NC(=O)c3ccncc3)c2O[C@@H]1CN(C)Cc1ccc(F)cc1Cl
AC50 [1]: 0.0324 µM (active)

CN(C)c1cc(NC(=O)c2ccccc2)ncn1
IC50 [2]: > 21.8 µM (inactive)

CN(C)C(=O)c1ccc(-c2ccc([C@H]3[C@H](CO)N4CCCCN(CC5CC5)C[C@@H]34)cc2)cc1
AC50 [1]: 2.74 µM (active)

COc1ccc(CSc2nnc(-c3ccc(Cl)cc3)o2)nc1
IC90 [3]: 2 µM (active)
IC90 [4]: 2 µM (active)

CCC(=O)N1[C@H](C(=O)OC)[C@@H](CO)[C@@H]2Cn3c(ccc(/C=C/c4ccccc4)c3=O)[C@@H]21
AC50 [5]: 12.8 µM (active)

COc1cccc(NC(=O)N2[C@@H](CO)[C@H](c3ccccc3)[C@@H]2CNCC(C)C)c1
AC50 [6]: 1.46 µM (active)
AC50 [7]: 95.4 µM (active)
AC50 [8]: 2.02 µM (active)
AC50 [9]: 0.852 µM (active)
AC50 [10]: 1.66 µM (active)

COc1ccccc1-c1ccc(CN(C)C[C@@H]2Oc3cc(C#C[C@@H](C)O)ccc3S(=O)(=O)N([C@@H](C)CO)C[C@@H]2C)cc1
AC50 [11]: > 52 µM (inactive)

CN(C)C(=O)c1ccc(-c2cccc(-c3nc(C(=O)NC4CCCC4)cc4c3[C@H](CCO)N([S@@+]([O-])C(C)(C)C)C4)c2)cc1
AC50 [6]: 1.14 µM (active)
AC50 [7]: 30.5 µM (active)
AC50 [8]: 1.99 µM (active)
AC50 [9]: 0.768 µM (active)
AC50 [10]: 1.03 µM (active)

Cc1ccc(Nc2cc(C)nc(NCc3ccccc3)n2)cc1
EC50 [12]: 0.255 µM (active)
EC50 [13]: 7.18 µM (active)
EC50 [14]: > 60 µM (inconclusive)
EC50 [15]: 6.62 µM (active)
AC50 [16]: 6.3 µM (active)
IC50 [17]: > 20 µM (inactive)
AC50 [18]: 3.94 µM (active)
AC50 [19]: 4.04 µM (active)
AC50 [20]: 17.2 µM (active)
AC50 [21]: 4.51 µM (active)
AC50 [22]: 4.77 µM (active)
AC50 [23]: 7.54 µM (active)

N=C(N)NCCC[C@H](N)C(=O)O [ARGININE]
AC50 [24]: 10 µM (inconclusive)
IC50 [25]: > 33.3 µM (inactive)
IC50 [26]: > 33.3 µM (inactive)
AC50 [27]: 31.6 µM (inconclusive)

CN(C)CCOC(c1ccc(Cl)cc1)c1ccccn1 (stereo not given) [CARBINOXAMINE MALEATE]
IC50 [25]: 21.4 µM (inactive)
IC50 [26]: > 33.3 µM (inactive)
